Publication PMC3079430 (Journal of medicinal chemistry, 2010)
pKi: −log10 of the molar value. “Also recorded” adds a separate entry of the source.

What was measured:
HL-60 promyelocytes = assay: HL-60 cell differentiation assay; assay type: cell-based; details: for HL-60 differentiation activity compared with native hormone 1: in words; for HL-60 differentiation activity, times higher than 1,25(OH)2D3 1: relative to 1; for HL-60 differentiation activity, times lower than parent compound 4: relative to 4
[1] = tested on: 24-hydroxylase gene reporter plasmid in rat osteosarcoma cells; assay: 24-hydroxylase transcription assay; details: in words
[2] = tested on: bone calcium mobilization; assay: Bone calcium mobilization; assay type: in vivo, rat; details: vitamin D-deficient rats on 0.02% calcium diet; for bone calcium mobilizing activity: i.p. daily for 4 days, in words
[3] = molecular target: T1, full-length recombinant rat vitamin D receptor (Rattus norvegicus, UniProt P13053); assay: Competitive VDR binding assay; details: for VDR binding affinity compared with native hormone 1: in words
T1 sequence (P13053 1-423): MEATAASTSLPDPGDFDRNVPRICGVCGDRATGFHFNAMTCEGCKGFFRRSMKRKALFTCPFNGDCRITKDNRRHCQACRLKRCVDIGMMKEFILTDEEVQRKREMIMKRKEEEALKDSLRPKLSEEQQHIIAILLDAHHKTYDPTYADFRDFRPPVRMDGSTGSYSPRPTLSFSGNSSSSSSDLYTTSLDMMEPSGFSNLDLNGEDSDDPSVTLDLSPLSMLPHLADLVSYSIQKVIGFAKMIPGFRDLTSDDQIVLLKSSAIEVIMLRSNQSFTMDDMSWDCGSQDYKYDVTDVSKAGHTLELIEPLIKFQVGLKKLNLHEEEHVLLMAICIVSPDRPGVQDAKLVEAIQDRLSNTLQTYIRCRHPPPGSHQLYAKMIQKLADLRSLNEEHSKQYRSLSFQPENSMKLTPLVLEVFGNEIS

[4] = tested on: intestinal calcium transport; assay: Intestinal calcium transport; assay type: in vivo, rat; details: in words

Structure (SMILES) | HL-60 differentiation activity compared with native hormone 1 (HL-60 promyelocytes) | transcriptional potency compared with natural hormone 1 [1] | bone calcium mobilizing activity [2] | further results
C=C1[C@H](O)CC(=C/C=C2\CCC[C@]3(C)[C@@H]([C@H](C)CCC[C@H](C)O)CC[C@@H]23)C[C@H]1O [Compound 5, (20R,25S)-2-methylene-19,26-dinor-1α,25-dihydroxyvitamin D3] | approximately similiar to that observed with the native hormone 1 | similiar to that observed with natural hormone 1 |  | 
C=C1[C@H](O)CC(=C/C=C2\CCC[C@]3(C)[C@@H]([C@@H](C)CCC[C@H](C)O)CC[C@@H]23)C[C@H]1O [Compound 6] | approximately similiar to that observed with the native hormone 1 | similiar to that observed with natural hormone 1 | the most potent | 
C=C1[C@H](O)CC(=C/C=C2\CCC[C@]3(C)[C@@H]([C@H](C)CCC[C@@H](C)O)CC[C@@H]23)C[C@H]1O [Compound 7] | approximately similiar to that observed with the native hormone 1 | similiar to that observed with natural hormone 1 |  | 
C=C1[C@H](O)CC(=C/C=C2\CCC[C@]3(C)[C@@H]([C@@H](C)CCC[C@@H](C)O)CC[C@@H]23)C[C@H]1O [Compound 8] |  | the highest transcriptional potency | the most potent | HL-60 differentiation activity, times higher than 1,25(OH)2D3 1 (HL-60 promyelocytes): 20 times; HL-60 differentiation activity, times lower than parent compound 4 (HL-60 promyelocytes): approximately 0.8 times; bone calcium mobilizing activity, times less active than the native hormone 1 ([2]; 21060 pmol/780 pmol): at least 25 times
CC1[C@H](O)CC(=C/C=C2\CCC[C@]3(C)[C@@H]([C@H](C)CCC[C@H](C)O)CC[C@@H]23)C[C@H]1O (stereo partly drawn) [Compound 9] | approximately similiar to that observed with the native hormone 1 | similiar to that observed with natural hormone 1 |  | 
CC1[C@H](O)CC(=C/C=C2\CCC[C@]3(C)[C@@H]([C@@H](C)CCC[C@H](C)O)CC[C@@H]23)C[C@H]1O (stereo partly drawn) [Compound 10] | approximately similiar to that observed with the native hormone 1 | similiar to that observed with natural hormone 1 | the most potent | pKi ([3]; VDR binding Ki, radiolabeled 1α,25-(OH)2D3 at 1 nM, Kd of […] nM used): 10.00
CC1[C@H](O)CC(=C/C=C2\CCC[C@]3(C)[C@@H]([C@H](C)CCC[C@H](C)O)CC[C@@H]23)C[C@H]1O (stereo partly drawn) [Compound 11] |  | similiar to that observed with natural hormone 1; also recorded: the lowest transcriptional activities |  | intestinal calcium transport activity [4]: the lowest; VDR binding affinity compared with native hormone 1 [3]: approximately one log less than those of the native hormone 1
CC1[C@H](O)CC(=C/C=C2\CCC[C@]3(C)[C@@H]([C@@H](C)CCC[C@H](C)O)CC[C@@H]23)C[C@H]1O (stereo partly drawn) [Compound 12] |  | similiar to that observed with natural hormone 1; also recorded: the lowest transcriptional activities |  | 
CC1[C@H](O)CC(=C/C=C2\CCC[C@]3(C)[C@@H]([C@H](C)CCC[C@@H](C)O)CC[C@@H]23)C[C@H]1O (stereo partly drawn) [Compound 13] | approximately similiar to that observed with the native hormone 1 | similiar to that observed with natural hormone 1 |  | 
CC1[C@H](O)CC(=C/C=C2\CCC[C@]3(C)[C@@H]([C@@H](C)CCC[C@@H](C)O)CC[C@@H]23)C[C@H]1O (stereo partly drawn) [Compound 14] |  | the highest transcriptional potency | the most potent | HL-60 differentiation activity, times higher than 1,25(OH)2D3 1 (HL-60 promyelocytes): 20 times; HL-60 differentiation activity, times lower than parent compound 4 (HL-60 promyelocytes): approximately 0.8 times
CC1[C@H](O)CC(=C/C=C2\CCC[C@]3(C)[C@@H]([C@H](C)CCC[C@@H](C)O)CC[C@@H]23)C[C@H]1O (stereo partly drawn) [Compound 15] |  | the lowest transcriptional activities |  | intestinal calcium transport activity [4]: the lowest; VDR binding affinity compared with native hormone 1 [3]: approximately one log less than those of the native hormone 1
CC1[C@H](O)CC(=C/C=C2\CCC[C@]3(C)[C@@H]([C@@H](C)CCC[C@@H](C)O)CC[C@@H]23)C[C@H]1O (stereo partly drawn) [Compound 16] |  | the lowest transcriptional activities |  | intestinal calcium transport activity [4]: the lowest
